According to patent publication US5861396A, “Purin-6-one derivatives” (Bayer Aktiengesellschaft, priority 1995, dated 1999):

Key:
[1] = system: PDE I (Ca^2+ calmodulin-stimulable); assay: Inhibition of the phosphodiesterases in vitro: PDE I; type: biochemical, porcine aorta, porcine brain or preferably bovine aorta; details: CaCl2 1 μM and calmodulin 0.1 μM added; nucleotide 10^-6 mol/l; pH 7.5; 30 min
Procedure: (§1) The c-GMP-stimulable PDE II, the c-GMP-inhibitable PDE III and the cAMP-specific PDE IV were isolated either from porcine or bovine myocardium. The Ca^2+ calmodulin-stimulable PDE I was isolated from porcine aorta, porcine brain or preferably from bovine aorta The c-GMP-specific PDE V was obtained from porcine small intestine, porcine aorta, human blood platelets and preferably from bovine aorta. Purification was carried out by anion exchange chromatography on Mono® Pharmacia essentially according to the method of M. Hoey and Miles D. Houslay, Biochemical Pharmacology, Vol. 40, 193-202 (1990) and C. Lugman et al., Biochemical Pharmacology Vol. 35, 1743-1751 (1986).
(§2) The enzyme activity was determined in a test mixture of 100 μl in 20 mM tris/HCl buffer ph 7.5 which contains 5 MM MgCl2, 0.1 mg/ml of bovine serum albumin and either 800 Bq of ^3 HcAMP or ^3 HcGMP. The final concentration of the corresponding nucleotides is 10^-6 mol/l. The reaction is started by addition of the enzyme; the amount of enzyme is proportioned such that during the incubation time of 30 min about 50% of the substrate is reacted. In order to test the cGMP-stimulable PDE II, ^3 HcAMP is used as a substrate and 10^-6 mol/l of unlabelled cGMP is added to the mixture. In order to test the Ca calmodulin-dependent PDE I, additionally CaCl2, 1 μM and calmodulin, 0.1 μM are added to the reaction mixture. The reaction is stopped by addition of 100 μl of acetonitrile which contains 1 mM cAMP and 1 mM AMP. 100 μl of the reaction mixture are separated on an HPLC and the cleavage products are quantitatively determined "on-line" using a flow scintillation counter. The substance concentration is measured at which the reaction rate is decreased by 50%. Additionally, the "phosphodiesterase [3H] cAMP-SPA enzyme assay" and the "phosphodiesterase [^3 H] cGMP-SPA enzyme assay" from Amersham Life Science were used for testing. The test was carried out according to the experimental protocol indicated by the manufacturer. For activity determination of the PDE2, the [^3 H] cAMP SPA assay was used, 10^-6 M cGMP being added to the reaction mixture to activate the enzyme. For the measurement of PDE1, calmodulin, 10^-7 M and CaCl2, 1 μM were added to the reaction mixture. The PDE5 was measured using the [^3 H] cGMP SPA assay.

[2] = system: PDE II (c-GMP-stimulable); assay: Inhibition of the phosphodiesterases in vitro: PDE II; type: biochemical, porcine or bovine (myocardium); details: ^3H cAMP substrate, 10^-6 mol/l unlabelled cGMP added; pH 7.5; 30 min
Procedure: as §1, §2

PDE V (c-GMP-specific) = assay: Inhibition of the phosphodiesterases in vitro: PDE V; type: biochemical; details: nucleotide 10^-6 mol/l, pH 7.5, 30 min; or [^3H] cGMP SPA assay
Procedure: as §1, §2

| IC50 [1] | IC50 [2] | IC50 (PDE V (c-GMP-specific)) | SMILES |
| --- | --- | --- | --- |
| 500 nM | 1 nM | 500 nM | COc1ccc(Cc2nc3c(ncn3C(CCCc3ccccc3)C(C)O)c(=O)[nH]2)cc1S(=O)(=O)N1CCC(C(=O)O)CC1 (stereo not drawn) [Example 138] |
| ~500 nM | 20 nM | 500 nM | CC(O)C(CCCc1ccccc1)n1cnc2c(=O)[nH]c(Cc3ccc(Cl)c(Cl)c3)nc21 (stereo not drawn) [Example 34] |
| 100 nM | 20 nM | 1000 nM | CC(CCCc1ccccc1)n1cnc2c(=O)[nH]c(Cc3ccc(-c4cccnc4)cc3)nc21 (stereo not drawn) [Example 84] |
| 3000 nM | 100 nM | 800 nM | CC(O)C(CCCc1ccccc1)n1cnc2c(=O)[nH]c(Cc3ccccc3)nc21 (stereo not drawn) [Example 33] |
| 500 nM | 3 nM | 1000 nM | CC(O)C(CCCc1ccccc1)n1cnc2c(=O)[nH]c(Cc3ccc(NC(=O)C4CCN(C(=O)OCc5ccccc5)CC4)cc3)nc21 (stereo not drawn) [Example 121] |
| 500 nM | 4 nM | 1000 nM | CCOC(=O)N1CCC(C(=O)Nc2ccc(Cc3nc4c(ncn4C(CCCc4ccccc4)C(C)O)c(=O)[nH]3)cc2)CC1 (stereo not drawn) [Example 122] |
| 300 nM | 20 nM | 500 nM | CC(CCCc1ccccc1)n1cnc2c(=O)[nH]c(Cc3ccc(-c4ccsc4)cc3)nc21 (stereo not drawn) [Example 83] |
| 3000 nM | 60 nM | 500 nM | CC(O)C(CCCc1ccccc1)n1cnc2c(=O)[nH]c(Cc3ccc(F)cc3)nc21 (stereo not drawn) [Example 69] |
| 1000 nM | 4 nM | 1000 nM | COc1ccc(Cc2nc3c(ncn3C(CCCc3ccccc3)C(C)=O)c(=O)[nH]2)cc1OC (stereo not drawn) [Example 100] |
| 100 nM | 80 nM | 1000 nM | CC(CCCc1ccccc1)n1cnc2c(=O)[nH]c(Cc3ccc(-c4ccc(F)cc4)cc3)nc21 (stereo not drawn) [Example 80] |
| 100 nM | 20 nM | 500 nM | CC(CCCc1ccccc1)n1cnc2c(=O)[nH]c(Cc3ccc(-c4cccc(N)c4)cc3)nc21 (stereo not drawn) [Example 82] |
| 500 nM | 200 nM | 300 nM | CC(CCCc1ccccc1)n1cnc2c(=O)[nH]c(Cc3ccccc3)nc21 (stereo not drawn) [Example 1] |
